Experimental data taken from patent US20130197071A1, “PRODUCTION OF LIPOXYGENASE INHIBITORS VIA FUNGAL BIOSYNTHETIC PATHWAY” (UNIVERSITY OF SOUTHERN CALIFORNIA, priority 2012, published 2013).
“Also recorded” adds a separate entry of the source. Like-named read-outs stand apart in the source and are kept apart here.

Assays:
[1] = Solubility of compound 5 in aqueous culture media; type: physicochemical; details: liquid lactose minimal medium culture
Text: The fungal strain used to over-produce compound 5 contains genetic alterations as described in Table 1. The native promoter of afoA, the gene that codes for the pathway-specific transcription activator of the asperfuranone pathway was replaced with the inducible alcohol dehydrogenase promoter, alcA. The afoD gene, that codes for the hydroxylase in the asperfuranone pathway, was deleted to enable the accumulation of intermediate, compound 5.^11 It should be noted that the afo cluster is silent under normal laboratory growing conditions. The wild type strain, thus, produced non-detectable compound 5 and asperfuranone (4).

[2] = target: T1, soybean LOX-1 (Lipoxygenase-1, 15-Lipoxygenase) (Glycine max, UniProt P08170); test: Soybean lipoxygenase-1 (LOX-1) inhibition assay, spectrophotometric at 234 nm, linoleic acid substrate; type: biochemical; details: for LOX-1 inhibition (result in words): screening for soybean LOX-1 inhibition
T1 construct: purchased Cayman Chemical #60712
T1 sequence (P08170 1-839): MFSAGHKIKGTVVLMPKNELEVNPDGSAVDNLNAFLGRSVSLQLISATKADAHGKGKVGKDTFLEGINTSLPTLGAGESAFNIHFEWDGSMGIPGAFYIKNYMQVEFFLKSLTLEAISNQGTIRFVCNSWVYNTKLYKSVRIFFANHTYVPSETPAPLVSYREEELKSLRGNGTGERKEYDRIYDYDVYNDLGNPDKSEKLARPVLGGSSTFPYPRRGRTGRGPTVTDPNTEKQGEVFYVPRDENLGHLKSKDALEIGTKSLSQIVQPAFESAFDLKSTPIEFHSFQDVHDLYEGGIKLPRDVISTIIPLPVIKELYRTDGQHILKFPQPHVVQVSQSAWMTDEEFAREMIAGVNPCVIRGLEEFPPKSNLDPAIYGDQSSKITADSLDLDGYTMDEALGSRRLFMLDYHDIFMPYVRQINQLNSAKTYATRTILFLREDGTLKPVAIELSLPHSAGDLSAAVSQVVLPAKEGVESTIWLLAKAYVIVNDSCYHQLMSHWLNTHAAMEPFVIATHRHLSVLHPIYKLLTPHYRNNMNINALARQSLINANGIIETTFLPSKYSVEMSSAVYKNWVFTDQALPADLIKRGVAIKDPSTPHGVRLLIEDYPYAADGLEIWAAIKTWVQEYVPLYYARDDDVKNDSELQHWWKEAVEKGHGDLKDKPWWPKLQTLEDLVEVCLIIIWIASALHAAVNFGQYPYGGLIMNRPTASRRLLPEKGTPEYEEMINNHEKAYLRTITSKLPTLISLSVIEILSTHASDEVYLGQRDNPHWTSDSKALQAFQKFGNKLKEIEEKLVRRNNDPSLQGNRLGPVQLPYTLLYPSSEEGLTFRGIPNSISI
Procedure: ^1H and ^13C NMR spectra were recorded on a Varian Mercury Plus 400 spectrometer. Chemical shifts are reported in ppm relative to CDCl3 (^1H, δ 7.26; ^13C, δ 77.0) or acetone-d6 (^1H, δ 2.05; ^13C, δ 30.0, 206.0). ^1H NMR data is reported as: chemical shift, multiplicity (s=singlet, d=doublet, t=triplet, q=quartet, m=multiplet), coupling constant, and integration. Infrared spectra were recorded on a JASCO FTIR-4100. Infrared frequencies are reported in reciprocal centimeters. High resolution electrospray ionization mass was obtained on an Agilent 6210 time of flight LC-MS. Reactions were monitored by analytical thin-layer chromatography on EMD silica gel-60^F254 plates. Flash chromatography was performed on EMD silica gel 60, 70-230 mesh. All reagents were used without further purification unless otherwise noted. Reagents were purchased from Sigma-Aldrich, and Alfa Aesar. Diethyl ether (anhydrous) and 1,2-dichloroethane (anhydrous) were used directly from the bottle. Water sensitive reactions were performed under a nitrogen atmosphere with oven-dried glassware. Kinetic experiments for lipoxygenase inhibition were recorded on a Shimadzu UV-2401PC at 26° C. Materials for the lipoxygenase assay such as linoleic acid, 15-Lipoxygenase (soybean PO, and (+)-sclerotiorin were purchased from Cayman Chemicals.
The enzyme assay was performed according to Axelrod et. al.^18 Each solution was prepared and measured at room temperature. Enzyme kinetics was measured on a Shimadzu UV-2401PC at a wavelength of 234 nm in a quartz cuvette (FIG. 6). For the assay, the linoleic acid substrate was prepared by mixing 20 μL linoleic acid (Cayman Chemical #760716) with 20 μL KOH (Cayman Chemical #760713) and 40 μL double distilled water. Lipoxygenase-1 (Cayman Chemical #60712) was diluted from original stock concentration to a concentration of 100 U/mL in the cuvette. The semisynthetic azaphilones were prepared as stock concentrations in dimethylsulfoxide (DMSO) from 20 μM to 10 mM; 54, was added to the assay mixture to give the desired final concentration of the inhibitor with 1% of DMSO in the assay.
The spectrophotometric assay is based on monitoring the reaction, catalyzed by LOX-1 to convert linoleic acid (L) to the hydroperoxide (LOOH), at 234 nm. […] The reaction is initiated when the non-heme iron of LOX-1 in the ferric state is reduced by the substrate L. While in the enzyme-substrate complex, L is oxidized and converted to the peroxide free radical (LOO.), and subsequently released from the enzyme as LOOH Inhibitors can interfere in the process in several different ways to prevent the generation of LOOH by the chelation of iron, removal of oxygen or prevention of free radical formation.
Prior to measurements, a sample with buffer was used as a blank. In a quartz cuvette, each sample was prepared with 482.54, 0.2 M borate buffer (at a pH of 9.0) mixed with 54, inhibitor and 54, substrate by pipetting the solution. The cuvette was placed in the spectrophotometer and measured for 120 seconds and then rapidly 7.54, lipoxygenase-1 was added and mixed to initiate the reaction. Measurements were recorded every 30 seconds for 7.5 minutes.
Inhibition of an enzyme at 50% can be experimentally measured by monitoring enzyme kinetics. A kinetic study generates a curve where the slope provides the initial velocity (Vo) of the enzyme. For each sample with different inhibitor concentrations the initial velocity was derived from a linear segment between […]. The absorbance was used directly and not converted into concentration units. […] The concentration of inhibitor at which 50% inhibition occurred (as measured by change in Vo) was reported as the IC50.

[3] = target: T1, soybean LOX-1 (Lipoxygenase-1, 15-Lipoxygenase); details: literature report (ref. 5); cited from earlier work
[4] = soybean LOX-1, linoleic acid, 0.2 M borate buffer pH 9.0, 1% DMSO, 234 nm, read-out: Lipoxygenase-1 Inhibitory Activity IC50 (μM) ± s.d.

For `CC[C@H](C)/C=C(C)/C=C/C(=O)Cc1cc(O)c(C)c(O)c1C=O` (stereo in doubt) [Compound 5, 2,4-dihydroxy-6-(5,7-dimethyl-2-oxo-trans-3-trans-5-nonadienyl)-3-methylbenzaldehyde], the “Solubility in aqueous media (in words)” value [1] was “poorly dissolved in aqueous media” and the IC50 [2, 4] was 97.2 ± 2 µM.

With `CC[C@H](C)/C=C(C)/C=C/C1=CC2=C(Cl)C(=O)C(C)(O)C(=O)C2=CO1` (stereo partly drawn) [Compound 12] the IC50 [2] was 7.9 ± 3.9 µM.

With `CC[C@H](C)/C=C(C)/C=C/C1=CC2=CC(=O)C(C)(OC(C)=O)C(=O)C2=CO1` (stereo partly drawn) [Compound 7] the “LOX-1 inhibition (result in words)” value [2] was “highest lipoxgyenase-1 inhibition; also recorded: most effective” and the IC50 [2, 4] was 4.9 ± 3.3 µM.

Compound `CC[C@H](C)/C=C(C)/C=C/C1=CC2=C(I)C(=O)C(C)(OC(C)=O)C(=O)C2=CO1` (stereo partly drawn) [Compound 10] has an IC50 [2, 4] of 17.4 ± 8.1 µM.

With asperfuranone [Compound 4] the IC50 [2, 4] was greater than 100 µM.

Work on `CC[C@H](C)/C=C(C)/C=C/C1=CC2=C(Br)C(=O)C(C)(OC(C)=O)C(=O)C2=CO1` (stereo partly drawn) [Compound 9] yielded an IC50 [2, 4] of 6.8 ± 4.5 µM.

For `CCOC(=O)C=C1C2=COC(/C=C/C(C)=C/[C@@H](C)CC)=CC2=C(I)C(=O)C1(C)O` (stereo partly drawn) [Compound 17], the IC50 [2, 4] was greater than 100 µM.

In the case of `CCOC(=O)C=C1C2=COC(/C=C/C(C)=C/[C@@H](C)CC)=CC2=C(Br)C(=O)C1(C)O` (stereo partly drawn) [Compound 16], the IC50 [2, 4] is reported as greater than 100 µM.

For `CC[C@H](C)/C=C(C)/C=C/C1=CC2=C(Cl)C(=O)[C@](C)(OC(C)=O)C(=O)C2=CO1` [Compound 1, (+)-sclerotiorin, reference compound], the “LOX-1 inhibition of (+)-sclerotiorin according to a report” value [3] is listed as “potent LOX-1 inhibition” and the IC50 [2, 4] is listed as 7.8 ± 2.4 µM.

With `CCOC(=O)C=C1C2=COC(/C=C/C(C)=C/[C@@H](C)CC)=CC2=CC(=O)C1(C)O` (stereo partly drawn) [Compound 15] the IC50 [2, 4] was greater than 100 µM.

In the case of `CC[C@H](C)/C=C(C)/C=C/C1=CC2=C(I)C(=O)C(C)(O)C(=O)C2=CO1` (stereo partly drawn) [Compound 14], the IC50 [2, 4] is reported as 19.6 ± 11.9 µM.

In the case of `CC[C@H](C)/C=C(C)/C=C/C1=CC2=C(Br)C(=O)C(C)(O)C(=O)C2=CO1` (stereo partly drawn) [Compound 13], the “LOX-1 inhibition (result in words)” value [2] is reported as “highest lipoxgyenase-1 inhibition; also recorded: most effective” and the IC50 [2, 4] is reported as 3.2 ± 1.5 µM.

`CC[C@H](C)/C=C(C)/C=C/C1=CC2=CC(=O)C(C)(O)C(=O)C2=CO1` (stereo partly drawn) [Compound 11] showed an IC50 [2, 4] of 10.7 ± 6.6 µM.

For `CC[C@H](C)/C=C(C)/C=C/C1=CC2=C(Cl)C(=O)C(C)(OC(C)=O)C(=O)C2=CO1` (stereo partly drawn) [Compound 8], the IC50 [2, 4] was 2.3 ± 0.9 µM.
